From ChEMBL document CHEMBL1201861, “Genomics of Drug Sensitity in Cancer screening data, Wellcome Trust Sanger Institute”

Tests used:
A549 = assay: cells; type: functional, cell-based, Homo sapiens; details: Homo sapiens, A549;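 also: growth inhibition of A549 cells, read out with a cell viability assay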
Description: SANGER: Inhibition of human A549 cell growth in a cell viability assay.

MDA-MB-175-VII = assay: cells; type: functional, cell-based, Homo sapiens
BFTC-909 = assay: cells; type: functional, cell-based, Homo sapiens
Description: SANGER: Inhibition of human BFTC-909 cell growth in a cell viability assay.

HuCCT-1 = assay: cells; type: functional, cell-based, Homo sapiens, HuCCT1;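 also: growth inhibition of HuCCT-1 cells, read out by a cell viability assay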
Description: SANGER: Inhibition of human HuCCT1 cell growth in a cell viability assay.

SBC-5 = assay: cells; type: functional, cell-based, Homo sapiens;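 also: cell viability assay read-out, IC50 is the concentration that inhibits growth of the cells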
Description: SANGER: Inhibition of human SBC-5 cell growth in a cell viability assay.

NUGC-3 = assay: cells; type: functional, cell-based, Homo sapiens;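 also: growth inhibition of human NUGC-3 cells, read out with a cell viability assay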
Description: SANGER: Inhibition of human NUGC-3 cell growth in a cell viability assay.

SW1573 = assay: cells; type: functional, cell-based, Homo sapiens;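 also: growth inhibition of SW1573 cells, read out with a cell viability assay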
Description: SANGER: Inhibition of human SW1573 cell growth in a cell viability assay.

SCC-25 = assay: cells; type: functional, cell-based, Homo sapiens;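 also: growth inhibition of SCC-25 cells, measured with a cell viability assay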
Description: SANGER: Inhibition of human SCC-25 cell growth in a cell viability assay.

DoTc2-4510 = assay: cells; type: functional, cell-based, Homo sapiens
MDA-MB-361 = assay: cells; type: functional, cell-based, Homo sapiens
OE33 = assay: cells; type: functional, cell-based, Homo sapiens;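 also: growth inhibition of human OE33 cells, measured by a cell viability assay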
Description: SANGER: Inhibition of human OE33 cell growth in a cell viability assay.

DMS-273 = assay: cells; type: functional, cell-based, Homo sapiens
Description: SANGER: Inhibition of human DMS-273 cell growth in a cell viability assay.

GCT = assay: cells; type: functional, cell-based, Homo sapiens;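 also: GCT cell line proliferation inhibition, read out with a cell viability assay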
Description: SANGER: Inhibition of human GCT cell growth in a cell viability assay.

H4 = assay: cells; type: functional, cell-based, Homo sapiens
Description: SANGER: Inhibition of human H4 cell growth in a cell viability assay.

A2780 = assay: cells; type: functional, cell-based, Homo sapiens;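 also: growth inhibition of A2780 cells, read out with a cell viability assay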
Description: SANGER: Inhibition of human A2780 cell growth in a cell viability assay.

HCC1419 = assay: cells; type: functional, cell-based, Homo sapiens;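 also: growth inhibition of human HCC1419 cells, read out as cell viability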
Description: SANGER: Inhibition of human HCC1419 cell growth in a cell viability assay.

SK-MEL3 = assay: cells; type: functional, cell-based, Homo sapiens, SK-MEL-3;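 also: growth inhibition of human SK-MEL-3 cells, read out with a cell viability assay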
Description: SANGER: Inhibition of human SK-MEL-3 cell growth in a cell viability assay.

GAMG = assay: cells; type: functional, cell-based, Homo sapiens;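 also: cell growth inhibition measured by a viability assay in the GAMG human cell line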
Description: SANGER: Inhibition of human GAMG cell growth in a cell viability assay.

EGI-1 = assay: cells; type: functional, cell-based, Homo sapiens;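 also: cell viability readout used to gauge growth inhibition of EGI-1 cells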
Description: SANGER: Inhibition of human EGI-1 cell growth in a cell viability assay.

PC-3 = assay: cells; type: functional, cell-based, Homo sapiens;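 also: cell viability assay measuring growth inhibition of PC-3 cells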
Description: SANGER: Inhibition of human PC-3 cell growth in a cell viability assay.

KYSE-270 = assay: cells; type: functional, cell-based, Homo sapiens;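 also: cell growth inhibition measured with a viability assay in the human KYSE-270 line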
Description: SANGER: Inhibition of human KYSE-270 cell growth in a cell viability assay.

ME-180 = assay: cells; type: functional, cell-based, Homo sapiens;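 also: cell viability assay measuring growth inhibition of ME-180 cells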
Description: SANGER: Inhibition of human ME-180 cell growth in a cell viability assay.

SiHa = assay: cells; type: functional, cell-based, Homo sapiens;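 also: Viability-based readout of growth inhibition in SiHa cells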
Description: SANGER: Inhibition of human SiHa cell growth in a cell viability assay.

C32 = assay: cells; type: functional, cell-based, Homo sapiens;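 also: cell viability assay, with IC50 reflecting inhibition of C32 cell growth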
Description: SANGER: Inhibition of human C32 cell growth in a cell viability assay.

LoVo = assay: cells; type: functional, cell-based, Homo sapiens;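 also: growth inhibition of human LoVo cells, read out with a cell viability assay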
Description: SANGER: Inhibition of human LoVo cell growth in a cell viability assay.

YAPC = assay: cells; type: functional, cell-based, Homo sapiens;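 also: growth inhibition of YAPC cells, measured with a cell viability assay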
Description: SANGER: Inhibition of human YAPC cell growth in a cell viability assay.

NCI-H650 = assay: cells; type: functional, cell-based, Homo sapiens;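 also: growth inhibition of NCI-H650 cells, read out by a viability assay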
Description: SANGER: Inhibition of human NCI-H650 cell growth in a cell viability assay.

CAL-85-1 = assay: cells; type: functional, cell-based, Homo sapiens;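 also: growth inhibition of human CAL-85-1 cells, read out with a cell viability assay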
Description: SANGER: Inhibition of human CAL-85-1 cell growth in a cell viability assay.

EVSA-T = assay: cells; type: functional, cell-based, Homo sapiens; details: evsa-t;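 also: growth inhibition of EVSA-T cells, read out with a cell viability assay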
Description: SANGER: Inhibition of human EVSA-T cell growth in a cell viability assay.

NCI-H1963 = assay: cells; type: functional, cell-based, Homo sapiens; details: nci-h1963;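 also: cell growth inhibition of the human line, determined with a cell viability assay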
Description: SANGER: Inhibition of human NCI-H1963 cell growth in a cell viability assay.

A-375 = assay: cells; type: functional, cell-based, Homo sapiens; details: a-375;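 also: growth inhibition of A375 cells, read out with a cell viability assay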
Description: SANGER: Inhibition of human A375 cell growth in a cell viability assay.

LU-165 = assay: cells; type: functional, cell-based, Homo sapiens; details: lu-165
Description: SANGER: Inhibition of human LU-165 cell growth in a cell viability assay.

UACC-812 = assay: cells; type: functional, cell-based, Homo sapiens; details: uacc-812
Description: SANGER: Inhibition of human UACC-812 cell growth in a cell viability assay.

NCI-H64 = assay: cells; type: functional, cell-based, Homo sapiens; details: nci-h64;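 also: growth inhibition of NCI-H64 cells, read out with a cell viability assay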
Description: SANGER: Inhibition of human NCI-H64 cell growth in a cell viability assay.

TALL-1 = assay: cells; type: functional, cell-based, Homo sapiens; details: tall-1;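 also: growth inhibition of cultured human TALL-1 cells, read out by a cell viability assay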
Description: SANGER: Inhibition of human TALL-1 cell growth in a cell viability assay.

SIG-M5 = assay: cells; type: functional, cell-based, Homo sapiens; details: sig-m5;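 also: cell viability assay read-out, measuring how strongly growth of cultured human SIG-M5 cells is inhibited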
Description: SANGER: Inhibition of human SIG-M5 cell growth in a cell viability assay.

NCI-H2171 = assay: cells; type: functional, cell-based, Homo sapiens; details: nci-h2171;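 also: growth inhibition of human NCI-H2171 cells, read out by a cell viability assay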
Description: SANGER: Inhibition of human NCI-H2171 cell growth in a cell viability assay.

D-542MG = assay: cells; type: functional, cell-based, Homo sapiens; details: d-542mg
Description: SANGER: Inhibition of human D-542MG cell growth in a cell viability assay.

MKN-28 = assay: cells; type: functional, cell-based, Homo sapiens; details: mkn-28;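 also: cell viability assay read-out, IC50 reflects suppression of growth of human MKN-28 cells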
Description: SANGER: Inhibition of human MKN28 cell growth in a cell viability assay.

NCI-H2227 = assay: cells; type: functional, cell-based, Homo sapiens; details: nci-h2227;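 also: growth inhibition of the human cell line, read out with a cell viability assay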
Description: SANGER: Inhibition of human NCI-H2227 cell growth in a cell viability assay.

K052 = assay: cells; type: functional, cell-based, Homo sapiens; details: k052;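 also: Read-out from a cell viability assay, IC50 reflecting suppression of K052 cell growth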
Description: SANGER: Inhibition of human K052 cell growth in a cell viability assay.

NCI-H524 = assay: cells; type: functional, cell-based, Homo sapiens; details: nci-h524;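 also: growth inhibition of human NCI-H524 cells, read out through a cell viability assay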
Description: SANGER: Inhibition of human NCI-H524 cell growth in a cell viability assay.

HSC-4 = assay: cells; type: functional, cell-based, Homo sapiens; details: hsc-4;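 also: growth inhibition of human HSC-4 cells, read out with a cell viability assay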
Description: SANGER: Inhibition of human HSC-4 cell growth in a cell viability assay.

NCCIT = assay: SANGER: Inhibition of human NCCIT cell growth in a cell viability assay.; type: functional, cell-based; details: nccit
PF-382 = assay: cells; type: functional, cell-based, Homo sapiens; details: pf-382
Description: SANGER: Inhibition of human PF-382 cell growth in a cell viability assay.

CPC-N = assay: cells; type: functional, cell-based, Homo sapiens; details: cpc-n;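 also: growth inhibition of CPC-N cells, with a cell viability assay as the readout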
Description: SANGER: Inhibition of human CPC-N cell growth in a cell viability assay.

KMS-12-PE = assay: cells; type: functional, cell-based, Homo sapiens; details: kms-12-pe;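 also: growth inhibition of human KMS-12-PE cells, measured with a cell viability assay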
Description: SANGER: Inhibition of human KMS-12-PE cell growth in a cell viability assay.

NCI-H187 = assay: cells; type: functional, cell-based, Homo sapiens; details: nci-h187;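 also: growth inhibition of NCI-H187 cells, read out as cell viability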
Description: SANGER: Inhibition of human NCI-H187 cell growth in a cell viability assay.

Cn1cnc2c(F)c(Nc3ccc(Br)cc3Cl)c(C(=O)NOCCO)cc21 [SELUMETINIB]
IC50 (A549): 0.214 µM | IC50 (MDA-MB-175-VII; Homo sapiens, MDA-MB-175-VII): > 4 µM | IC50 (BFTC-909; Homo sapiens, BFTC-909): > 4 µM | IC50 (HuCCT-1; Homo sapiens, HuCCT-1): 1.3 µM | IC50 (SBC-5; Homo sapiens, SBC-5): > 4 µM | IC50 (NUGC-3; Homo sapiens, NUGC-3): 1.2 µM | IC50 (SW1573; Homo sapiens, SW1573): > 4 µM | IC50 (SCC-25; Homo sapiens, SCC-25): > 4 µM | IC50 (DoTc2-4510; Homo sapiens, DoTc2-4510): > 4 µM | IC50 (MDA-MB-361; Homo sapiens, MDA-MB-361): > 4 µM | IC50 (OE33; Homo sapiens, OE33): > 4 µM | IC50 (DMS-273; Homo sapiens, DMS-273): > 4 µM | IC50 (GCT; Homo sapiens, GCT): > 4 µM | IC50 (H4; Homo sapiens, H4): > 4 µM | IC50 (A2780; Homo sapiens, A2780): > 4 µM | IC50 (HCC1419; Homo sapiens, HCC1419): > 4 µM | IC50 (SK-MEL3; Homo sapiens, SK-MEL3): 1.95 µM | IC50 (GAMG; Homo sapiens, GAMG): > 4 µM | IC50 (EGI-1; Homo sapiens, EGI-1): 1.83 µM | IC50 (PC-3; Homo sapiens, PC-3): > 4 µM | IC50 (KYSE-270; Homo sapiens, KYSE-270): > 4 µM | IC50 (ME-180; Homo sapiens, ME-180): > 4 µM | IC50 (SiHa; Homo sapiens, SiHa): > 4 µM | IC50 (C32; Homo sapiens, C32): 0.0982 µM | IC50 (LoVo; Homo sapiens, LoVo): 1.06 µM | IC50 (YAPC; Homo sapiens, YAPC): > 4 µM | IC50 (NCI-H650; Homo sapiens, NCI-H650): > 4 µM | IC50 (CAL-85-1; Homo sapiens, CAL-85-1): > 4 µM

BLEOMYCIN
IC50 (MDA-MB-175-VII; mda-mb-175-vii): 1.51 µM | IC50 (BFTC-909; bftc-909): 0.0138 µM | IC50 (EVSA-T): 861 µM | IC50 (HuCCT-1; hucct1): 10.9 µM | IC50 (NCI-H1963): 193 µM | IC50 (A-375): 0.0711 µM | IC50 (SBC-5; sbc-5): 0.624 µM | IC50 (NUGC-3; nugc-3): 1.13 µM | IC50 (LU-165): 41.8 µM | IC50 (UACC-812): 99.6 µM | IC50 (SW1573; sw1573): 0.137 µM | IC50 (SCC-25; scc-25): 0.415 µM | IC50 (DoTc2-4510; dotc2-4510): 0.378 µM | IC50 (NCI-H64): 0.641 µM | IC50 (TALL-1): 244 µM | IC50 (SIG-M5): 0.586 µM | IC50 (MDA-MB-361; mda-mb-361): 0.719 µM | IC50 (OE33; oe33): 2.75 µM | IC50 (DMS-273; dms-273): 2.98 µM | IC50 (GCT; gct): 4.99 µM | IC50 (NCI-H2171): 1420 µM | IC50 (D-542MG): 60.3 µM | IC50 (H4; h4): 0.321 µM | IC50 (A2780; a2780): 0.22 µM | IC50 (MKN-28): 0.00108 µM | IC50 (HCC1419; hcc1419): 253 µM | IC50 (NCI-H2227): 721 µM | IC50 (SK-MEL3; sk-mel-3): 22.2 µM | IC50 (GAMG; gamg): 0.289 µM | IC50 (K052): 482 µM | IC50 (NCI-H524): 190 µM | IC50 (EGI-1; egi-1): 0.772 µM | IC50 (HSC-4): 153 µM | IC50 (PC-3; pc-3): 13.3 µM | IC50 (KYSE-270; kyse-270): 0.717 µM | IC50 (ME-180; me-180): 40.9 µM | IC50 (SiHa; siha): 5170 µM | IC50 (NCCIT): 1.07 µM | IC50 (C32; c32): 471 µM | IC50 (LoVo; lovo): 0.0712 µM | IC50 (YAPC; yapc): 4190 µM | IC50 (PF-382): 0.426 µM | IC50 (NCI-H650; nci-h650): 0.000587 µM | IC50 (CPC-N): 52.5 µM | IC50 (CAL-85-1; cal-85-1): 0.000178 µM | IC50 (KMS-12-PE): 2530 µM | IC50 (NCI-H187): 8790 µM
